Entries after “also recorded” stand apart in the source; their conditions may differ.
Legend:
TALL1 [1] = assay: Cell cycle analysis (Ki67 and Hoechst stain), TALL1; type: cell-based, human; settings: 10 μM
Description: (§1) FIGS. 6A-6D show 6-(4-Tert-Butylphenoxy)Pyridin-3-Amine (I3) induces G0/G1 cell cycle arrest and apoptosis in human T cell acute lymphoblastic leukemia cell lines and human breast cancer cell line HCC1187. […] Percentage of Annexin V positive (apoptotic) cell population was measured using flow cytometry.
In addition to induction of apoptosis, the proliferative arrest observed in 6-(4-Tert-Butylphenoxy)Pyridin-3-Amine (I3) treated human leukemic cell lines and breast cancer cell line also appears to be due to cell cycle arrest in G0/G1 phase of the cell cycle. Leukemic cell lines (RPMI8402, KOPTK1 and TALL1) and breast cancer cell lines were treated with 6-(4-Tert-Butylphenoxy)Pyridin-3-Amine (I3) for 48 hours and cell cycle status was determined using Ki67 and Hoechst stain.

[2] = test system: Notch target genes Hes1, cMyc and Dtx1; NICD; assay: Notch target gene expression in human cancer cell lines (qRT-PCR, Western blot); type: cell-based
Description: Total RNA was extracted from cells using TRIzol® extraction kit (Invitrogen). Briefly, 1×10^6 cells were washed with ice-cold 1×PBS and lysed in 1 ml of TRIzol® solution for 5 minutes at room temperature to dissociate nucleoprotein complexes. Lysed cells were then treated with 200 μl of chloroform and shaked vigorously for 15-30 seconds and incubated at room temperature for 2-3 minutes. The samples were centrifuged at 14000 rpm using Eppendorf table top centrifuge for 10 minutes at 4° C. Following centrifugation, upper aqueous phase was transferred to new eppendorf tubes. […]
Total RNA extracted from the cell was used to synthesize cDNA by reverse transcription reaction. […] RNA concentration was measured using NanoDrop®ND-1000 spectrophotometer (Witec AG) and 500 ng of total RNA was mixed with a 10 mM mix of dNTPs and 100 ng of random primers. […]
Cells were lysed in RIPA buffer (50 mM Tris.Cl, pH 7.5, 150 mM NaCl, 1% nonidet P-40, 0.5% sodium deoxycholate and 0.1% SDS) for 30 minutes at 4° C. […] The protein concentration was determined by Bradford assay using spectrophotometer (Ultrospec 3000 pro). […]
For immunoblotting, membranes were blocked with 5% milk and incubated overnight with primary antibodies at 4° C. […] Signal was detected with Super Signal West chemiluminescent substrate (Thermo Scientific, catalog number 34077). […]

TALL1 [3] = assay: Annexin V apoptosis, TALL1; type: cell-based, human; settings: 10 μM, 7 days
Description: as §1
To quantitate the percentage of apoptotic cells, AnnexinV and 7AAD staining was performed. Thymic cells were suspended in 300 μl of 1× AnnexinV binding buffer (BD Biosciences, San Diego, USA) and incubated with 10 μl of AnnexinV-Cy5 antibody and 10 μl of 7AAD (BD Biosciences, San Diego, USA). Samples were incubated for 15 minutes at room temperature. FACS was performed with in one hour of antibody staining.
This 6-(4-Tert-Butylphenoxy)Pyridin-3-Amine (I3) mediated proliferative arrest could be due to induction of apoptosis or cell cycle arrest during different phases of cell cycle. […] Therefore to further elucidate the mechanisms responsible for 6-(4-Tert-Butylphenoxy)Pyridin-3-Amine (I3) mediated proliferative arrest cell cycle and apoptosis analyses were carried out. […] To investigate cell death, Annexin V staining was performed and proportion of apoptotic (AnnexinV positive) cell population was determined by flow cytometry analyses after 7 days of treatment.

CC(C)(C)c1ccc(Oc2ccc(N)cn2)cc1 [I3, 6-(4-Tert-Butylphenoxy)Pyridin-3-Amine]
cell cycle status (TALL1 [1]; 48 hours): induces an arrest in the G0/G1 phase of the cell cycle
increase in cells arrested in G0/G1 phase of the cell cycle (TALL1 [1]; stated jointly for RPMI8402, KOPTK1 and TALL1): 20-30%
NICD protein levels ([2]; RPMI 8402, HPB ALL, KOPTK1, 24 hours, Western blot): reduced levels of NICD
expression of Notch target genes Hes1, cMyc and Dtx1 (mRNA and protein) ([2]; RPMI 8402, HPBALL, KOPTK1 and PANC1, 24 hours): induced a statistically significant downregulation of Notch target genes; also recorded: inhibits Notch signalling and downregulates its target genes in human cancer cell lines; also recorded: downregulation of Notch target genes in human T-ALL cell lines
apoptosis (Annexin V positive cells) (TALL1 [3]): induces significant apoptosis

— patent US10054581B1, “Inhibitors of notch signaling pathway and use thereof in treatment of cancers” (Ecole Polytechnique Federale de Lausanne (EPFL), priority 2011, dated 2018)
